Test results as given in patent US10548937B2, “Composition for the treatment of arthropathies and osteoarthritis” (Kolinpharma S.p.A., priority 2014, dated 2020).

Assays:
Format in all cases: cell-based
[1] = system: TNFα production by human chondrocytes; test: ELISA test (Test 1a), TNFα in culture medium
Experimental: (§1) Human chondrocytes (Lonza, cat. N. CC-2550) derived from knee tissue were cultured in Chondrocyte Growth Medium (Lonza, cat. N. CC-3216) prepared according to the manufacturer's instructions with the addition of R3-insulin-like growth factor-1 [R3-IGF-1], human recombinant fibroblast growth factor beta [hrFGF-β], transferrin, insulin, foetal bovine serum [FBS] and gentamicin/amphotericin-B [GA]. The cells were maintained in an incubator at 37° C. and 5% CO2 and seeded every 3-4 days at a density of about 1×10^4 cells/cm^2.
(§2) After about 16-20 hours of incubation, the cells were processed for the various tests.
In the “sandwich” ELISA test, a 96-well plate is covered with a monoclonal antibody specific for a given cytokine. […] The addition of a sulfuric acid solution changes the colour of the solution from blue to yellow, blocking the development of the colour and allowing accurate reading of the absorbance of the samples at 450 nm.
For the purposes of the treatment, the medium was harvested and stored at −80° C. until the time of use for the test. […] The concentrations of cytokines released into the culture medium were then expressed as pg of cytokine/mg of total protein of the sample. […]
Release into the culture medium of the pro-inflammatory cytokines TNFα, IL-6 and IL-8 by the human chondrocytes was evaluated both in the absence and in the presence of stimulation with IL-1β for 16 hours. […]

human chondrocytes = test: MTT test (Test 0), cell vitality; conditions: overnight incubation, 'likewise' = did not prove toxic
Experimental: as §1, §2
This colorimetric test is based on the transformation of the tetrazolium salt MTT (yellow) into formazan (violet), by the succinate-tetrazolium reductase system, which belongs to the mitochondrial respiratory chain and is active only in metabolically active cells. […] An insoluble colorant forms during this period, which, after dissolving by adding dissolution solution to the samples (10% SDS in 10 mM HCl) and after incubating overnight in an incubator, may be quantified by reading the absorbance of the samples at 595 nm (using 750 nm as reference wavelength). The measured absorbance correlates directly with the number of live cells.
To exclude a possible toxic effect attributable to the chosen incubation protocol, the cell vitality was quantified by means of an MTT test. […]

[2] = system: nuclear translocation of NF-kB in human chondrocytes; test: Nuclear translocation of NF-kB (Test 1b), immunolabelling and confocal microscope; conditions: IL-1β about 20 hours
Experimental: as §1, §2
The chondrocytes were seeded onto 13 mm glass slides and, once they had reached confluence, were incubated overnight with the various treatments. […]
Images of the samples thus prepared were acquired on a confocal microscope (TCS SPE UV, Leica Microsystems) and were analysed with the software ImageJ v1.47h (http://imagej.nih.gov/ij) for the quantification of the nuclear translocation of NF-kB (Noursadeghi M et al., Journal of Immunological Methods, 2008, vol. 329, pages 194-200). […] These masks were then applied to the original NF-kB signals to calculate the fluorescence intensity in the nucleus and in the cytoplasm from the histograms of the intensities created with ImageJ. The mean fluorescence intensity ratio between the nucleus and the cytoplasm was then calculated for each sample.

Structure (SMILES)	effect on the production of TNFα ([1]; 10 μM in the culture medium)	toxicity to chondrocytes (MTT, cell vitality) (human chondrocytes; 10 μM)	effect on the translocation of NF-kB to the nucleus ([2]; celecoxib 10 μM)	effect on the production of TNFα ([1]; 100 μM in the culture medium)	toxicity to chondrocytes (MTT, cell vitality) (human chondrocytes; 100 μM)	effect on the translocation of NF-kB to the nucleus ([2]; diclofenac 100 μM)
Cc1ccc(-c2cc(C(F)(F)F)nn2-c2ccc(S(N)(=O)=O)cc2)cc1 [celecoxib]	no effect	likewise for the incubation with the positive controls	no significant effect	–	–	–
O=C(O)Cc1ccccc1Nc1c(Cl)cccc1Cl [diclofenac]	–	–	–	no effect	likewise for the incubation with the positive controls	no significant effect
